Results from patent US10988505B2.

What was measured:
X31 H3N2 influenza virus = test: Influenza virus replication X31 in Calu-3 cells (viral plaque assay); type: cell-based; settings: Calu-3 human bronchial epithelial cells, 48 h, read-out: calu3_x31_H3N2 EC50 (avg)
[1] = molecular target: recombinant human matriptase (Homo sapiens (Human), UniProt Q9Y5Y6); test: Matriptase inhibition, Ki determination; type: biochemical; settings: purified recombinant human matriptase, Boc-Gln-Ala-Arg-AMC substrate, pH 7.4
cartilage damage = test: Osteoarthritis (OA) model, DMM surgery; type: in vivo, C57BL/6J mice; settings: DMM mice, 5 microlitre intraarticular injections of 10 mg/ml in saline on days 7 and 28, scored day 56
Method: The ability of the tested compound to protects against in vivo aggrecan loss in an osteoarthritis (OA) model was evaluated as described by Litherland G J. et al. Arthritis Rheumatol 2014; 66:2175-87.
OA was induced in C57BL/6J mice following destabilization of the medial meniscus (DMM) surgery. Mice received 5 microlitre intraarticular injections of either saline or Compound 1 (10 mg/ml in saline) on days 7 and 28 post surgery. At day 56 post-surgery, mice were killed, knee joints isolated and fixed overnight in 7% formaldehyde in PBS. Joints were decalcified in EDTA in PBS for 10 days and then wax embedded. Consecutive sections (6 μm) were stained with safranin 0 with hematoxylin counterstaining and then cartilage damage graded (by two blinded, independent observers) according to a published grading system [Litherland, 2014]: 0 (normal) to 6 (vertical clefts/erosion to the calcified cartilage extending to […] of the articular surface). Bars show the mean+/−SD of the highestscores in the medial tibial and femoral condyles for each joint. […] The results are depicted in FIG. 1.
**P<0.01 for the control and ***P<0.001 for Compound 1, by Kruskal-Wallis test with Dunn's multiple comparison test.

Chain of recombinant human matriptase (Q9Y5Y6 615-855, other chains not shown): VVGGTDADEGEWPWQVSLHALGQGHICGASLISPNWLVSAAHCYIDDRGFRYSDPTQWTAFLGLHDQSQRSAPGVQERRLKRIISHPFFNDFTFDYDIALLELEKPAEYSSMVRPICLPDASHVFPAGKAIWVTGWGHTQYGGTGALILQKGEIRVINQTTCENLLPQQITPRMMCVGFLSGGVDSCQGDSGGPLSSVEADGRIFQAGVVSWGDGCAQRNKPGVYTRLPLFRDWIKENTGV

SMILES: C[C@H](NC(=O)[C@H](CCC(N)=O)NC(=O)[C@@H](N)CCCNC(=N)N)C(=O)N[C@@H](CCCNC(=N)N)C(=O)c1nc2ccccc2s1 [Comparative #1, reference compound]
- EC50 (X31 H3N2 influenza virus): 7700 nM

SMILES: C[C@H](NC(=O)[C@@H](N)CCC(N)=O)C(=O)N[C@@H](CCCNC(=N)N)C(=O)c1nc2ccccc2s1 [Comparative #2, reference compound]
- Ki [1]: 0.0877 nM
- EC50 (X31 H3N2 influenza virus): 5690 nM

SMILES: N=C(N)NCCCCC(=O)N[C@@H](CCC(N)=O)C(=O)N[C@@H](Cc1ccccc1)C(=O)N[C@@H](CCCNC(=N)N)C(=O)c1nc2ccccc2s1 [Example 1]
- Ki [1]: 0.134 nM
- EC50 (X31 H3N2 influenza virus): 20.9 nM
- cartilage damage score (cartilage damage): decreased the cartilage damage score

SMILES: CC(=O)N[C@@H](CCC(N)=O)C(=O)N[C@@H](Cc1ccccc1)C(=O)N[C@@H](CCCNC(=N)N)C(=O)c1nc2ccccc2s1 [Example 3]
- EC50 (X31 H3N2 influenza virus): 34 nM
